From US4334067A, “Flavan compounds and acid addition salts thereof” (Maruko Seiyaku Co., Ltd., priority 1979, dated 1982)
Counter-ions that a name gives are not always drawn.

Key:
ddY male mice = assay: Anti-convulsive activity (pulse from corneal electrode); type: in vivo; conditions: 60 mg/kg intraperitoneally, 15 minutes before pulse; compared with Phenytoin 40 mg/kg
Procedure: The test compound was administered intraperitoneally to ddY male mice (weighing 20 to 25 g, 7 mice per group), and, 15 minutes thereafter, pulse (A.C. 100 V, 200 msec.) was applied to the mice from a corneal electrode, and the duration time of tonic flexor, tonic extensor and clonic convulsion were determined.

Acute toxicity = conditions: mouse, in vivo, 7 days observation
Procedure: […] After observing general conditions of mice for 7 days after administration, 50% lethal dose [LD50 (mg/kg)] was determined.

Wistar male rats [1] = assay: Anti-arrhythmic activity (aconitine-induced arrhythmia); type: in vivo; conditions: 10 mg/kg, 10 minutes before aconitine; compared with Ajmaline 5 mg/kg
Procedure: An aqueous solution of aconitine was injected continuously at a rate of 3 μg/kg/minute to Wistar male rats (weighing 220 to 270 g, five rats per group) through a polyethylene cannula inserted into the femoral vein. The test compounds were administered 10 minutes before the administration of aconitine.
The cardiac arrhythmia was determined by electrocardiographic recording of II lead on the limbs and the generation of descending large QRS complex was taken as the ventricular extrasystole and the observation was conducted until ventricular fibrillation was produced.

BALB/C type male mice = assay: Anti-ulcerous activity (restraint water-immersion stress ulcer); type: in vivo; conditions: for Ulcerous Index: control 54.4 mm; for % Inhibition: inhibition of stress ulcer versus control
Procedure: BALB/C type male mice weighing about 20 g which fasted for 17 hours before the test were placed in a poly(vinyl chloride) cyclindrical restraint cage having an inside diameter of 35 mm and the mice were immersed in water at 15° C. to the level of xiphisternum of mice for a period of 5 hours. Immediately thereafter, stomach was extracted and 1 ml of 0.5% (by weight) formalin solution was injected into the stomach. After fixing for about 10 minutes, the stomach was incised along the greater curvature thereof and the ulcer generated was obserbed by a stereoscopic microcope.

Wistar male rats [2] = assay: Diuretic activity; type: in vivo; conditions: oral, urine collected 5 hours, control = 1.0
Procedure: Wistar male rats (weighing 200 to 250 g, 9 rats per group) fasted 18 hours before the test but freely received drinking water were used. A 0.9% (by weight) physiological saline solution containing the test compound was orally charged through a stomach tube in an amount of 3 ml/100 g of body weight. Immediately thereafter, the rats were placed in a stainless steel cage and the urine was collected during a period of 5 hours after the administration and the urine volume was measured.

Structure (SMILES) | anti-convulsive activity (ddY male mice) | LD50 at 168 h (Acute toxicity; iv) | LD50 at 168 h (Acute toxicity; po) | activity for prolonging the time required for producing the cardiac arrhythmia (Wistar male rats [1]) | Ulcerous Index (BALB/C type male mice; 10 mg/kg) | % Inhibition (BALB/C type male mice; 10 mg/kg) | Volume Ratio of Urine (Wistar male rats [2]; 100 mg/kg) | Ulcerous Index (BALB/C type male mice; 50 mg/kg) | % Inhibition (BALB/C type male mice; 50 mg/kg) | Volume Ratio of Urine (Wistar male rats [2]; 50 mg/kg)
CCN(CC)CCN[C@H]1c2ccccc2O[C@H](c2ccc(OC)cc2)[C@@H]1O (relative stereo) [Compound A, 2,3-cis-3,4-trans-4-(2-diethylaminoethylamino)-4'-methoxyflavan-3-ol dimaleate] | comparable to that of Phenytoin | 1000 mg/kg | 2000 mg/kg |  |  |  |  |  |  | 
COc1ccc([C@H]2Oc3ccccc3[C@H](N3CCN(C)CC3)[C@H]2O)cc1 (relative stereo) [Compound B, 2,3-cis-3,4-trans-4'-methoxy-4-(4-methylpiperazin-1-yl)flavan-3-ol dimaleate] | comparable to that of Phenytoin | 1000 mg/kg | 2000 mg/kg | superior to Ajmaline |  |  |  |  |  | 
CN(C)CCN[C@H]1c2ccccc2O[C@@H](c2ccccc2)[C@@H]1O (relative stereo) [Compound H, 2,3-trans-3,4-trans-4-(2-dimethylaminoethylamino)-flavan-3-ol dimaleate] |  | 300 mg/kg | 300 mg/kg | superior to Ajmaline |  |  |  |  |  | 
CN1[C@@H]2CC[C@H]1C[C@@H](OC(=O)C(CO)c1ccccc1)C2 (some centres unmarked) [Atropine Sulfate, reference compound] |  |  |  |  | 30.7 mm | 43.8% |  |  |  | 
COc1ccc([C@H]2Oc3ccccc3[C@H](NCCCN(C)C)[C@H]2O)cc1 (relative stereo) [Compound D, 2,3-cis-3,4-trans-4-(3-dimethylaminopropylamino)-4'-methoxyflavan-3-ol] |  | 1000 mg/kg | 1500 mg/kg |  |  |  |  |  |  | 
O[C@H]1[C@H](c2ccccc2)Oc2ccccc2[C@@H]1N1CCCCC1 (relative stereo) [Compound E, 2,3-trans-3,4-trans-4-piperidinoflavan-3-ol maleate] | comparable to that of Phenytoin | 1000 mg/kg | 1500 mg/kg |  |  |  | 2.8 |  |  | 
COc1ccc([C@H]2Oc3ccccc3[C@H](NCCCN3CCOCC3)[C@H]2O)cc1 (relative stereo) [Compound C, 2,3-cis-3,4-trans-4'-methoxy-4-(3-morpholinopropylamino)flavan-3-ol dimaleate] | comparable to that of Phenytoin | 500 mg/kg | 1500 mg/kg |  |  |  | 2.1 |  |  | 
CN1CCN([C@H]2c3ccccc3O[C@@H](c3ccccc3)[C@@H]2O)CC1 (relative stereo) [Compound F, 2,3-trans-3,4-trans-4-(4-methylpiperazin-1-yl)flavan-3-ol dimaleate] |  | 300 mg/kg | 300 mg/kg |  |  |  | 2.2 |  |  | 
CC(=O)O[C@H]1[C@H](c2ccccc2)Oc2ccccc2[C@@H]1N1CCN(C)CC1 (relative stereo) [Compound G, 2,3-trans-3,4-trans-3-acetoxy-4-(4-methylpiperazin-1-yl)flavan dimaleate] |  | 300 mg/kg | 1000 mg/kg |  | 37.6 mm | 30.8% |  | 14.3 mm | 73.7% | 3.0
